Assay results: ChEMBL document CHEMBL1201862, “PubChem BioAssay data set” (2004)
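1) Cells in 96-well plates. 2) Compound, 48 h, 5 concentrations. 3) Linear interpolation between surrounding doses. 4) Unreached endpoint = highest concentration. Abbreviation: GI50, concentration required for 50% inhibition of growth.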 The source made the active and inactive calls. Cut-off read from the data, not from the text of the source: active = GI50 up to about 1.1 µM and inactive = higher.

Tests used:
Assay in all cases: NCI anticancer screen, dose series, 48 h
IGROV-1 = tested on: IGROV-1
MDA-N = tested on: MDA-N
HOP-62 = tested on: HOP-62
SNB-19 = tested on: SNB-19
HT-29 = tested on: HT-29
OVCAR-4 = tested on: OVCAR-4
PC-3 = tested on: PC-3
OVCAR-8 = tested on: OVCAR-8
A498 = tested on: A498
HCT-116 = tested on: HCT-116
SNB-75 = tested on: SNB-75
SK-MEL-28 = tested on: SK-MEL-28
M14 = tested on: M14
LOX IMVI = tested on: LOX IMVI
UACC-62 = tested on: UACC-62
SF-539 = tested on: SF-539
UACC-257 = tested on: UACC-257
SK-MEL-5 = tested on: SK-MEL-5
CAKI-1 = tested on: CAKI-1
ACHN = tested on: ACHN
Malme-3M = tested on: Malme-3M
NCI-H522 = tested on: NCI-H522
CCRF-CEM = tested on: CCRF-CEM
SW-620 = tested on: SW-620
COLO 205 = tested on: COLO 205
A549 = tested on: A549
UO-31 = tested on: UO-31
OVCAR-3 = tested on: OVCAR-3
SK-MEL-2 = tested on: SK-MEL-2
SF-295 = tested on: SF-295
SR = tested on: SR
SK-OV-3 = tested on: SK-OV-3
KM12 = tested on: KM12
SN12C = tested on: SN12C
BT-549 = tested on: BT-549
HCT-15 = tested on: HCT-15
HL-60 = tested on: HL-60
DU-145 = tested on: DU-145
MCF7 = tested on: MCF7
K562 = tested on: K562
SF-268 = tested on: SF-268
EKVX = tested on: EKVX
HCC 2998 = tested on: HCC 2998
NCI-H460 = tested on: NCI-H460
OVCAR-5 = tested on: OVCAR-5
U-251 = tested on: U-251
NCI-H23 = tested on: NCI-H23
MDA-MB-231 = tested on: MDA-MB-231
Hs-578T = tested on: Hs-578T
NCI-H226 = tested on: NCI-H226
NCI/ADR-RES = tested on: NCI/ADR-RES
T47D = tested on: T47D
MOLT-4 = tested on: MOLT-4
MDA-MB-435 = tested on: MDA-MB-435
TK-10 = tested on: TK-10
RPMI-8226 = tested on: RPMI-8226
786-0 = tested on: 786-0

With `N#C/C(N)=C(C#N)/N=C/NCCO` the GI50 (IGROV-1) was > 100 µM (inactive), the GI50 (MDA-N) was > 100 µM (inactive) and the GI50 (HOP-62) was > 100 µM (inactive). The GI50 (SNB-19) was > 100 µM (inactive), the GI50 (HT-29) was > 100 µM (inactive) and the GI50 (OVCAR-4) was > 100 µM (inactive). The GI50 (PC-3) was > 100 µM (inactive), the GI50 (OVCAR-8) was > 100 µM (inactive) and the GI50 (A498) was > 100 µM (inactive). For the same molecule, the GI50 (HCT-116) was > 100 µM (inactive), the GI50 (SNB-75) was > 100 µM (inactive) and the GI50 (SK-MEL-28) was > 100 µM (inactive). The GI50 (M14) was > 100 µM (inactive), the GI50 (LOX IMVI) was > 100 µM (inactive) and the GI50 (UACC-62) was > 100 µM (inactive). The GI50 (SF-539) was > 100 µM (inactive), the GI50 (UACC-257) was > 100 µM (inactive) and the GI50 (SK-MEL-5) was > 100 µM (inactive). For the same molecule, the GI50 (CAKI-1) was > 100 µM (inactive), the GI50 (ACHN) was > 100 µM (inactive) and the GI50 (Malme-3M) was > 100 µM (inactive). For the same molecule, the GI50 (NCI-H522) was > 100 µM (inactive), the GI50 (CCRF-CEM) was > 100 µM (inactive) and the GI50 (SW-620) was > 100 µM (inactive). The GI50 (COLO 205) was > 100 µM (inactive), the GI50 (A549) was > 100 µM (inactive) and the GI50 (UO-31) was > 100 µM (inactive). The GI50 (OVCAR-3) was > 100 µM (inactive), the GI50 (SK-MEL-2) was > 100 µM (inactive) and the GI50 (SF-295) was > 100 µM (inactive). For the same molecule, the GI50 (SR) was > 100 µM (inactive), the GI50 (SK-OV-3) was > 100 µM (inactive) and the GI50 (KM12) was > 100 µM (inactive). For the same molecule, the GI50 (SN12C) was > 100 µM (inactive), the GI50 (BT-549) was > 100 µM (inactive) and the GI50 (HCT-15) was > 100 µM. The GI50 (HL-60) was > 100 µM (inactive), the GI50 (DU-145) was > 100 µM (inactive) and the GI50 (MCF7) was > 100 µM (inactive). The GI50 (K562) was > 100 µM (inactive), the GI50 (SF-268) was > 100 µM (inactive) and the GI50 (EKVX) was > 100 µM (inactive). For the same molecule, the GI50 (HCC 2998) was > 100 µM (inactive), the GI50 (NCI-H460) was > 100 µM (inactive) and the GI50 (OVCAR-5) was > 100 µM (inactive). The GI50 (U-251) was > 100 µM (inactive), the GI50 (NCI-H23) was > 100 µM (inactive) and the GI50 (MDA-MB-231) was > 100 µM (inactive). For the same molecule, the GI50 (Hs-578T) was > 100 µM (inactive), the GI50 (NCI-H226) was > 100 µM (inactive) and the GI50 (NCI/ADR-RES) was > 100 µM (inactive). The GI50 (T47D) was > 100 µM (inactive), the GI50 (MOLT-4) was > 100 µM (inactive) and the GI50 (MDA-MB-435) was > 100 µM (inactive). The GI50 (TK-10) was > 100 µM (inactive), the GI50 (RPMI-8226) was > 100 µM (inactive) and the GI50 (786-0) was > 100 µM (inactive).

`CC(=O)N1c2ccccc2C2=NN(C)C(=N)SC21` (centres undefined) was tested, and the GI50 (MDA-N) was > 100 µM (inactive), the GI50 (HOP-62) was > 100 µM (inactive) and the GI50 (SNB-19) was > 100 µM (inactive). The GI50 (HT-29) was > 100 µM (inactive), the GI50 (OVCAR-4) was > 100 µM (inactive) and the GI50 (PC-3) was > 100 µM (inactive). The GI50 (OVCAR-8) was > 100 µM (inactive), the GI50 (A498) was 66.7 µM (inactive) and the GI50 (HCT-116) was > 100 µM (inactive). The GI50 (SNB-75) was 56 µM (inactive), the GI50 (SK-MEL-28) was > 100 µM (inactive) and the GI50 (M14) was > 100 µM (inactive). For the same molecule, the GI50 (LOX IMVI) was > 100 µM (inactive), the GI50 (SF-539) was > 100 µM (inactive) and the GI50 (UACC-257) was > 100 µM (inactive). The GI50 (ACHN) was > 100 µM (inactive), the GI50 (Malme-3M) was 68.4 µM (inactive) and the GI50 (NCI-H522) was 67.8 µM (inactive). The GI50 (CCRF-CEM) was > 100 µM (inactive), the GI50 (SW-620) was > 100 µM (inactive) and the GI50 (COLO 205) was > 100 µM (inactive). For the same molecule, the GI50 (A549) was > 100 µM (inactive), the GI50 (UO-31) was 28 µM (inactive) and the GI50 (OVCAR-3) was 13.8 µM (inactive). For the same molecule, the GI50 (SK-MEL-2) was > 100 µM (inactive), the GI50 (SF-295) was 50.4 µM (inactive) and the GI50 (SR) was > 100 µM (inactive). For the same molecule, the GI50 (KM12) was > 100 µM (inactive), the GI50 (SN12C) was > 100 µM (inactive) and the GI50 (BT-549) was > 100 µM (inactive). For the same molecule, the GI50 (HCT-15) was > 100 µM, the GI50 (HL-60) was 89.5 µM (inactive) and the GI50 (DU-145) was > 100 µM (inactive). The GI50 (MCF7) was > 100 µM (inactive), the GI50 (K562) was > 100 µM (inactive) and the GI50 (SF-268) was > 100 µM (inactive). For the same molecule, the GI50 (EKVX) was > 100 µM (inactive), the GI50 (HCC 2998) was > 100 µM (inactive) and the GI50 (NCI-H460) was > 100 µM (inactive). For the same molecule, the GI50 (OVCAR-5) was > 100 µM (inactive), the GI50 (U-251) was > 100 µM (inactive) and the GI50 (NCI-H23) was > 100 µM (inactive). For the same molecule, the GI50 (MDA-MB-231) was > 100 µM (inactive), the GI50 (Hs-578T) was > 100 µM (inactive) and the GI50 (NCI-H226) was > 100 µM (inactive). For the same molecule, the GI50 (NCI/ADR-RES) was > 100 µM (inactive), the GI50 (T47D) was 29.9 µM (inactive) and the GI50 (MOLT-4) was > 100 µM (inactive). For the same molecule, the GI50 (MDA-MB-435) was 89.3 µM (inactive), the GI50 (TK-10) was > 100 µM (inactive) and the GI50 (RPMI-8226) was > 100 µM (inactive). The GI50 (786-0) was > 100 µM (inactive).
